How the values were obtained:
HIV-1 p24^gag antigen = experiment: HIV-1 p24gag antigen production, antigen-capture ELISA of culture medium; format: cell-based
[1] = system: human rhabdomyosarcoma cell line TE671; details: well-described phenomenon; cited from earlier work
OM-10.1 cells = experiment: Intracellular p24 fluorescence in OM-10.1 cells; format: cell-based; details: vpr supernatant versus control supernatant
Description: In other experiments, OM-10.1 cells, which are T lymphoid in origin, were treated with either control supernatant lacking vpr or vpr supernatant from baculovirus-infected cells. Cells are shown in visible light and stained for intracellular p24 detected by fluorescence microscopy. The intensity of fluorescence is a measure of the virus expression.

[2] = system: TE671 rhabdomyosarcoma cells; experiment: Biological activity of baculovirus vpr supernatant on TE671 cells; format: cell-based, human
Excerpt: Recombinant vpr protein can be tested for biological activity in tissue culture. Vpr and control supernatants were dialyzed against PBS and applied to TE671 rhabdomyosarcoma cells. TE671 cells differentiate and cease to proliferate when transfected with the vpr gene or infected with HIV (Gras-Masse et al., supra; Levy et al., supra). […] Cells exposed to vpr for 3 days were examined for the presence of adult muscle myosin, a differentiation marker for these cells (Aguanno et al., Cancer Res., 1990, 50, 3377).

[3] = continuous exposure to 20% vpr supernatant

CCCCCCCCCCCCCC(=O)O[C@@H]1[C@@H](C)[C@@]2(O)[C@@H](C=C(CO)C[C@]3(O)C(=O)C(C)=C[C@@H]23)[C@@H]2C(C)(C)[C@]12OC(C)=O [phorbol myristate acetate]
increase in p24 release (HIV-1 p24^gag antigen; pNLpuroΔvpr-transfected cells exposed to phorbol ester): 3 fold
p24 release (HIV-1 p24^gag antigen; undifferentiated pNLpuro-transfected cells exposed to phorbol ester): no measurable p24 release
morphology and growth of stimulated TE671 cells [1]: increase in overall size and length, are often multinucleated, and display slowed proliferation

vpr protein: HIV-1 viral protein R produced in baculovirus-infected insect cells, used as supernatant or partially purified
retrovirus expression, intracellular p24 fluorescence (OM-10.1 cells): induces a high level of retrovirus expression
time to cessation of proliferation [2, 3]: approximately 3 days
time to morphological differentiation [2, 3]: 7-9 days
effect on cell survival ([2]; exposure to greater than 20% supernatant): rapidly fatal

— patent US6838236B1, “VPR function and activity” (priority 1993, dated 2005)
